Results on two molecules are retold here after publication PMC8709788, “Mandipropamid as a chemical inducer of proximity for in vivo applications” (Nature Chemical Biology, 2021).

For experiment [1], the target named is T1, FKBP12 / FRB (rapamycin CIP system) (Homo sapiens, UniProt P42345+P62942).
T1 construct: gene FKBP1A
The experiment can be described thus: RSICS fluorescence cross-correlation in living cells. The format is cell-based. Particulars: COS-7 cells, 15 min, ternary complex FKBP12-rapamycin-FRB.

In experiment [2] the target is T2, PYL / ABI (ABA CIP system) (Arabidopsis thaliana, UniProt Q8VZS8).
T2 construct: gene PYL1; TOM20-PYL and eGFP-ABI fusions for imaging; with Protein phosphatase 2C 56
T2 sequence (Q8VZS8 33-209 limits assumed): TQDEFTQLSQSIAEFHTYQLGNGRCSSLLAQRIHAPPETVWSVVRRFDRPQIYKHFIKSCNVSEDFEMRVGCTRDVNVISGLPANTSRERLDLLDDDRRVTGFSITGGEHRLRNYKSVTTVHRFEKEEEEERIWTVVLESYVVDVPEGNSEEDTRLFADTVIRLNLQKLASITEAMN
T2 sequence (P49597 126-423 partner limits assumed): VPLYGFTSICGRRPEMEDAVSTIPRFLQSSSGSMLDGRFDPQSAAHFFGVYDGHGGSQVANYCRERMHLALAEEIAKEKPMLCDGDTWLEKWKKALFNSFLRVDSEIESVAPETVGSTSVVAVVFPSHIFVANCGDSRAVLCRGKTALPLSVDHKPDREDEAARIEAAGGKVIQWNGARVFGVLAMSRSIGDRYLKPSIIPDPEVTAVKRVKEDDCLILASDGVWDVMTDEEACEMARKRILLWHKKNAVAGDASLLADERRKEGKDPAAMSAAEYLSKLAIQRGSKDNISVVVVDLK
Description: Gal4BD/VP16 induced-proximity luciferase expression assay. The format is cell-based. Particulars: COS-7 cells, […] h incubation; induced dimerization of PYL with ABI; text says ABA, legend of Fig. 2e names ABA and also ABA-AM.

T1 sequence (P62942 2-108): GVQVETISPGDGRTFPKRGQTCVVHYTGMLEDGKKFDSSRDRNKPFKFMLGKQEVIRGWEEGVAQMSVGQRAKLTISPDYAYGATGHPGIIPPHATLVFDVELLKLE
T1 sequence (P42345 2021-2113 limits assumed): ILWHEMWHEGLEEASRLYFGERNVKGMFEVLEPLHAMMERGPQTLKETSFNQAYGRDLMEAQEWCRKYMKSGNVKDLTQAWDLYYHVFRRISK

Take `CO[C@H]1C[C@@H]2CC[C@@H](C)[C@@](O)(O2)C(=O)C(=O)N2CCCC[C@H]2C(=O)O[C@H]([C@H](C)C[C@@H]2CC[C@@H](O)[C@H](OC)C2)CC(=O)[C@H](C)/C=C(\C)[C@@H](O)[C@@H](OC)C(=O)[C@H](C)C[C@H](C)/C=C/C=C/C=C/1C` [compound 5, rapamycin]: in experiment [1], the “binding efficiency (interacting fraction) at 500 nM” value is listed as 71 ± 3%.
Molecule (+)-abscisic acid [compound 3] registered an EC50 in experiment [2] of 30.8 ± 15.5 µM.
